Source: patent publication US20200306283A1, “CANCER TREATMENT AND METASTASIS INHIBITION USING AN ANTI-CANCER STEM CELL AGENT IN COMBINATION WITH A NEU1 SIALIDASE INHIBITOR OR A CYTOKINE INHIBITOR AFTER PRIMARY CANCER TREATMENT” (priority 2016, published 2020)

Experiments:
HCT-15 cells = test: Cell subpopulations (CD44/CD24) in HCT-15 cell line after cytokine exposure, imaging flow cytometry; assay type: cell-based; set-up: unit not given here; details: HCT-15 cells after exposure to cytokines singly or in pairs
Description: Two authenticated colorectal carcinoma cell lines, HCT-15 and SW-620, were used to test the effect of different cytokine and cytokine cocktails, including IL-6, HGF, PGE-2, TGF-beta and MMP-9 alone or in a cocktail, on cell proliferation, EMT and cancer stem cell populations.
In order to evaluate stem cell populations, cells were synchronized by serum starvation for 72 hours before seeding in 24-well ultra low attachment plates at a density of 200,000 cells/well. Cells were then detached using trypsin EDTA and washed twice with PBS (without Calcium or Magnesium). A cell proliferation dye, eFluor 450 was used to label cells. Cells were grown with DMEM with high glucose and 2 mM Gluatmine without FBS in the presence of selected cytokines and or cytokine cocktails over a period of 72 hrs.
Cells that were grown in 5% serum were stained with the following antibody cocktails: CD24FITC, CD44PE and CD24FITC, CD133PE. Cells were also stained with a fixable live/dead efluor dye 506 to exclude dead cells. In parallel, cells were grown in the presence of 5% serum to evaluate CSC markers.
(§1) Cells were fixed in 1% Paraformaldehyde for 15 minutes at room temperature and run on Flowsight using 2 lasers (488 nm at 60 mW and 405 nm at 30 mW). For cell lines, 100,000 events were collected whilst for enriched CTCs all events were collected until the sample finished.
Flow cytometry data was analysed using IDEAS software. Double events, out of focus events, CD45PercPCy5.5 positive cells (in case of enriched CTCs), dead cells and non-nucleated events were eliminated from the fluorescence analysis of the cell population. FIG. 2 depicts scatterplots of flow cytometry experiments showing the enriched CTCs stained with an antibody containing CD44 after treatment with various cytokines and cytokine cocktails. Hoescht 33258 dye was used to stain nuclei in the case of the HCT-15 cell line and enriched CTCs. All experiments were stained with a fixable live/dead dye eFluor 506 to exclude dead cells.
To evaluate which cocktail combinations were most likely involved in cell proliferation of presumed quiescent stem cells or de-differentiated stem cell-like cells, four cytokines, IL-6, HGF, PGE-2 and TGF-beta were added singly or in pairs to HCT-15 cells. Results of combinations that influenced cell proliferation of HCT-15 cells in culture are presented. […] FIG. 4 depicts cell proliferation of subpopulations in the HCT-15 cell line after exposure to various cytokines and cytokine cocktails.

[1] = system: enriched circulating tumour cells from a patient with metastatic prostate cancer; test: Cell proliferation / cancer stem cell markers (EpCAM, CD44, CD133) in enriched CTCs cultured with cytokine cocktails; assay type: cell-based, human; details: for EpCAM + CD133+ cell subpopulation / EpCAM + CD133− cell subpopulation / EpCAM − CD133+ cell subpopulation / EpCAM − CD133− cell subpopulation: CD133 PE antibody cocktail; for EpCAM + CD44+ cell subpopulation / EpCAM + CD44− cell subpopulation / EpCAM − CD44+ cell subpopulation / EpCAM − CD44− cell subpopulation: cell culture period 8 days
Description: as §1
Flow cytometry data was analysed using IDEAS software. Double events, out of focus events, CD45PercPCy5.5 positive cells (in case of enriched CTCs), dead cells and non-nucleated events were eliminated from the fluorescence analysis of the cell population. FIG. 2 depicts scatterplots of flow cytometry experiments showing the enriched CTCs stained with an antibody containing CD44 after treatment with various cytokines and cytokine cocktails.
In order to determine if selected cytokines influence cell proliferation of circulating tumour cells (CTCs), whole blood was collected from a patient with metastatic prostate cancer. Circulating tumour cells were enriched from whole blood using RosetteSep CTC Enrichment cocktail. Briefly, samples of whole blood were incubated with RosetteSep (anti CD 56 for 20 minutes at room temperature). Phosphate buffered saline containing 2% Fetal Bovine Serum was added to the samples and layered on a Ficoll Paque gradient. After centrifugation, the supernatant which contained CTCs was washed twice with PBS containing 2% FBS. Equal volumes of the cell suspension were seeded into a 24-well ultra-low attachment polystyrene plate. […] FIG. 3 depicts scatterplots of flow cytometry experiments enriched CTCs stained with an antibody containing CD133 after treatment with various cytokines and cytokine cocktails.
FIG. 6 depicts cell proliferation of subpopulations in cultured CTCs after exposure to various cytokines and cytokine cocktails. Cells were stained using an antibody containing CD44 PE.
Cells were stained using an antibody containing CD133 PE.

SW-620 cells = SW-620 cells treated with cytokines with or without Irinotecan, flow cytometry for stem cell markers and apoptosis; assay type: cell-based, human; details: SW-620, cytokines 24 hours then 2 μM Irinotecan 36 hours; zero in non-treated control cells
Description: SW-620 cells, a human colorectal adenocarcinoma cell line, were treated with cytokines alone or in combination including IL-6, TGF-beta, HGF, PGE-2, IL-6+PGE-2 and TGF-beta+HGF for 24 hours and compared to untreated SW-620 cells as control. Some treated and untreated SW-620 cells were then exposed to 2 μM Irinotecan for 36 hours at which point cells were harvested for flow cytometry to assess for stem cell markers and markers of apoptosis. The percentage of CD44+CD133− cells following treatment with various cytokine and cytokine cocktails is depicted in FIG. 10. Compared to non-cytokine treated cells, combinations with IL-6+PGE-2, and TGF-beta+HGF increased the number and percentage of cells that were CD44+CD133− as shown in FIG. 10 (stem cells). FIG. 11 depicts the percentage of CD44+CD133− cells following treatment with various cytokines and Irinotecan. […]
Additionally, the percentage of CD44-CD133+ cells following treatment with various cytokines and cytokines cocktails was determined as depicted in FIG. 16. The percentage of CD44-CD133+ cells following treatment with various cytokines and Irinotecan was measured as depicted in FIG. 17. The percentage of CD44-CD133+ cells following treatment with various cytokine cocktails and Irinotecan was measured as depicted in FIG. 18. […]

[2] = system: Panc1, Panc1-gemr, Panc1-cisr and Panc1-gemr/cisr cells; test: Immunocytochemistry of E-, N- and VE-cadherin on Panc1 and chemoresistant Panc1 cells after Tamiflu (FIG. 25); assay type: cell-based, human; details: Tamiflu 600 μg/mL for 24 hours, Panc1 and drug resistant lines
Description: Turning to FIG. 25, oseltamivir phosphate by itself was able to reverse a partial EMT in human PANC1 cancer cell lines, including drug resistant cancer cell lines as evidenced by an upregulation in the epithelial marker E-cadherin and a downregulation in the mesenchymal marker N-cadherin. Expression of e-cadherin, n-cadherin, and Ve-cadherin on the surface of Pancl, Pancl-gemr, Pancl-cisr, and Pancl-gemr/cisr cells were determined following treatment with Tamiflu® 600 μg/mL for 24 hours. Immunocytochemistry was performed on fixed, nonpermeabilized cells. The indicated primary antibodies for Ecadherin, N-cadherin, and Ve-cadherin were used, followed by alexa Fluor® 594 (life Technologies inc, Burlington, ON, Canada) secondary antibody for the primary antibody against n-cadherin and Dylight™ 488 (santa cruz Biotechnology, inc, santa cruz, ca, Usa) secondary antibody for primary antibodies against e-cadherin and Ve-cadherin. The background controls had no primary antibody during the staining procedure. The stained cells were visualized after 24 hours using a Zeiss M2 Imager fluorescence microscope (Carl Zeiss ag, Oberkochen, germany) at 400× magnification. Images are representative of at least four fields of view in three separate trials. Quantitative analysis was done by assessing the density of cell staining corrected for background in each panel using corel Photo Paint 8.0 software (Corel Corporation, Ottawa, ON, Canada). each bar in the figures represents the mean (±standard error of the mean) corrected density of culture cell staining for equal cell density (5×10^5 cells) within the respective images. P-values represent significant differences at 95% confidence using Dunnett's multiple comparison test compared with untreated control group. (Abbreviations: 1° ab=primary antibody; Pancl-gemr=Pancl cells with established chemoresistance to 0.01 μM gemcitabine; Pancl-gemr/cisr=Pancl cells with established chemoresistance to a combination of 0.01 μM gemcitabine and 80 μM cisplatin; cad=cadherin; Bkg=background; se=standard error.)

[3] = system: enriched circulating tumour cells from a patient with colorectal cancer; test: Cultured enriched CTCs from a colorectal cancer patient treated with IL-6, IL-8 or PDGFBB (EpCAM, CD133, Lgr5 flow cytometry); assay type: cell-based, human; details: cultured CTCs from colorectal cancer patient
Text: A blood sample was collected from a patient with colorectal cancer six days after surgery. Blood samples were enriched for CTCs using RosetteSep CD 56 kit according to standard protocol. Prior to cell culture, cells were stained with the following antibody cocktail: EpCAM A488, CD133PE, CD 45 PerCP Cy5.5, and Lgr5-PE-Vio770. Cells were either cultured in low attachment well plates without cytokines (control cells) or with three different cytokines (IL-6, IL-8 or PDGFBB).
Flow cytometry data was analysed using IDEAS software. Double events, out of focus events, CD45PercPCy5.5 positive cells, dead cells and non-nucleated events were eliminated from the fluorescence analysis of the cell population. Hoescht 33258 dye was used to stain nuclei of enriched CTCs. All experiments were stained with a fixable live/dead dye eFluor 506 to exclude dead cells.

[4] = listed as Oseltamivir Phosphate

Row | Compound | CD24 + CD44− cell subpopulation (HCT-15 cells) | CD44 + CD24+ cell subpopulation (HCT-15 cells) | CD44 + CD24− cell subpopulation (HCT-15 cells) | CD44 − CD24− cell subpopulation (HCT-15 cells) | EpCAM + CD133+ cell subpopulation [1] | EpCAM + CD133− cell subpopulation [1] | EpCAM − CD133+ cell subpopulation [1] | EpCAM − CD133− cell subpopulation [1] | EpCAM + CD44+ cell subpopulation ([1]; CD44PE antibody cocktail) | EpCAM + CD44− cell subpopulation ([1]; CD44PE antibody cocktail) | EpCAM − CD44+ cell subpopulation ([1]; CD44PE antibody cocktail) | EpCAM − CD44− cell subpopulation ([1]; CD44PE antibody cocktail) | also measured
1 | CCCCC[C@H](O)/C=C/[C@H]1[C@H](O)CC(=O)[C@@H]1C/C=C\CCCC(=O)O [PGE-2, prostaglandin E2, reference compound] | 58.7 | 7.3 | 0.61 | 32.4 | 10.4 percentages of gated subpopulations | 0 percentages of gated subpopulations | 86.7 percentages of gated subpopulations | 2.61 percentages of gated subpopulations | 27.2 percentage of gated cells | 1.75 percentage of gated cells | 4.23 percentage of gated cells | 65.5 percentage of gated cells | EpCAM-CD44+ cell sub-population ([1]; 8 days culture, no serum, CD44PE antibody cocktail): 4.23 % gated; percentage of CD44+CD133− stem cells (SW-620 cells): enriched
2 | CCOC(=O)C1=C[C@@H](OC(CC)CC)[C@H](NC(C)=O)[C@@H](N)C1 [oseltamivir phosphate] | – | – | – | – | – | – | – | – | – | – | – | – | E-cadherin expression on cell surface [2]: upregulation; N-cadherin expression on cell surface [2]: downregulation; VE-cadherin expression on cell surface [2]: significant downregulation; E-cadherin expression on cell surface [2, 4]: statistically significant upregulation in the epithelial marker E-Cadherin in all 4 cell lines tested with the exception of the double resistant pancreatic cell line; N-cadherin expression on cell surface [2, 4]: Downregulation of N cadherin was seen in all cell lines tested
3 | HGF: Hepatocyte Growth Factor added to cancer cells in culture | 58.6 | 3.29 | 0.31 | 35.9 | 17.2 percentages of gated subpopulations | 0.2 percentages of gated subpopulations | 80.8 percentages of gated subpopulations | 1.58 percentages of gated subpopulations | 16.8 percentage of gated cells | 4.89 percentage of gated cells | 2.12 percentage of gated cells | 74.9 percentage of gated cells | –
4 | Il-8 | – | – | – | – | – | – | – | – | – | – | – | – | EpCAM + CD133+ cell subpopulation [3]: 0.13 percentages of gated subpopulations; EpCAM + CD133− cell subpopulation [3]: 2.51 percentages of gated subpopulations; EpCAM − CD133+ cell subpopulation [3]: 0.09 percentages of gated subpopulations; EpCAM − CD133− cell subpopulation [3]: 90.8 percentages of gated subpopulations
